# Experimental data reported in patent US12578273B2, “Ph-reversible leuco-BODIPY probe for in situ visualization of extracellular vesicles and their secretion from living cells” (The Chinese University of Hong Kong, priority 2021, dated 2026).
# Test system: HeLa cells that express GFP-tagged CD81
# Assay: Confocal imaging of EVs or precursor EVs (colocalization of BODIPY with GFP-tagged CD81)
# Assay type: cell-based
# Conditions: 30 min
# Procedure: Pre-seeded in 35-mm confocal dishes (SPL Life Sciences, Pocheon, South Korea), cells were grown to the desired confluence before transfection. The transfection medium, formulated in 1 mL of OptiMEM (Gibco, Waltham, MA), contains 7.5 μL of Lipofectamine 3000 (Invitrogen) and either 2.5 μg/mL GFP-CD81 or EGFP-tubulin-6 plasmids. After incubating the cells with the transfection medium for 4 h, the cells were switched to 2 mL of plasmid-free complete DMEM for 2 d. After that, the transfected cells were incubated with leuco-BODIPY for further confocal imaging.
# Confocal imaging of EVs or precursor EVs To prepare the stock of the probe for our cell-based experiments, BODIPY was pre-dissolved in 100% DMSO (2 mM). After dissolution, the probe predominantly assumes the leuco-BODIPY form, as evidenced by its light-yellow color. Cells that express marker proteins of interest (i.e., GFP-tagged CD81 or EGFP-tagged tubulin-6) were pre-seeded in 35-mm confocal dishes. After removing the culture medium, the transfected cells were incubated with 1 mL of 2 μM leuco-BODIPY [dissolved in phenol red-free DMEM (Gibco) with […] (Invitrogen) for solubilization] for 30 min. The EVs in the medium or precursor EVs inside cells were imaged under a Leica SP8 confocal microscope with a 63× objective. The excitation wavelengths of the GFP-tagged proteins and BODIPY were 488 nm and 575 nm, respectively. The emission wavelengths of the GFP-tagged proteins and BODIPY were 495-525 nm and 585-710 nm, respectively. All images were taken at the same laser settings.
# Then, we seeded HeLa, A549, or HEK293 cells that express GFP-tagged CD81 in a confocal dish and incubated the cells with phenol red-free medium containing 2 μM leuco-BODIPY and 0.1% DMSO for 30 min. Note that this probe is predominantly in its leuco-BODIPY form when dissolved in DMSO, as evidenced by its light-yellow color. We obtained confocal images of the cell-seeded medium without harvesting the EVs or rinsing the cells (FIGS. 2A, 30-31). Representative images of their extracellular space depict granular or spherical pockets of fluorescence from BODIPY (red) amidst a dark background. […] The fluorescent pockets of BODIPY are submicron-sized or micron-sized, larger than the reported sizes of exosomes (50-200 nm).^36 As the resolution limit of confocal microscopy may overestimate the size of EVs, we isolated EVs from the cell-seeded medium for nanoparticle tracking analysis (NTA; FIG. 2B). The hydrodynamic size distribution of the EVs lies between about 50 nm and about 400 nm, with peak EV diameters of 151 nm, 104 nm, and 156 nm for HeLa, A549, and HEK293 cells, respectively. As these peak EV sizes corroborate the typical sizes of exosomes, we conclude that the EVs detected are mostly exosomes, with a smaller portion of larger ectosomes, clustered exosomes, or extracellular MVBs (FIGS. 4A-4C).
# Next, we attempted to use our probe for imaging intracellular precursor EVs before their secretion to the extracellular milieu. Again, we added leuco-BODIPY (dissolved in DMSO) to culture medium seeded with HeLa, A549, or HEK293 cells that express GFP-tagged CD81 for 30 min (FIG. 3). […] Contrarily, the overlap between BODIPY and GFP-CD81 fluorescence in the cytoplasm is moderate, characterized by Pearson's colocalization coefficients of 0.72, 0.66, and 0.63 for HeLa, A549, and HEK293 cells, respectively. As a negative control, we captured confocal images of the three cell lines but without adding leuco-BODIPY to the medium.
structure (smiles),measurement,setting,value
CCOC(=O)C(=Cc1ccc2n1[B-](F)(F)n1c(C=C(C(=O)OCC)C(=O)OCC)ccc1C2(OC)c1ccncc1)C(=O)OCC [leuco-BODIPY],Pearson's colocalization coefficient between BODIPY and CD81-GFP fluorescence,"extracellular space (CD81-enriched exosomes), 2 μM, no rinsing",0.92
same,Pearson's colocalization coefficient between BODIPY and GFP-CD81 fluorescence,in the cytoplasm,0.72
same,Pearson's colocalization coefficient between BODIPY and GFP-CD81 fluorescence,on the pseudopodia,0.94
